Laboratory results reported in the NIST ThermoML archive (doi:10.1016/j.jct.2004.12.008).

Test: xn = mol fraction of the nth substance listed
Conditions: 101 kPa, Liquid

O=[N+]([O-])c1ccccc1 [nitrobenzene] + CCc1ccccc1
Conditions	mass density [kg/m3]
293.15 K, x2 = 0	1202.95
293.15 K, x2 = 0.0478	1184.56
293.15 K, x2 = 0.1275	1154.51
293.15 K, x2 = 0.1842	1133.58
293.15 K, x2 = 0.2576	1107.04
293.15 K, x2 = 0.3238	1083.6
293.15 K, x2 = 0.4023	1056.42
293.15 K, x2 = 0.4578	1037.57
293.15 K, x2 = 0.5139	1018.83
293.15 K, x2 = 0.5813	996.7
293.15 K, x2 = 0.6423	977.03
293.15 K, x2 = 0.6931	960.9
293.15 K, x2 = 0.7592	940.24
293.15 K, x2 = 0.8343	917.18
293.15 K, x2 = 0.8824	902.65
293.15 K, x2 = 0.9587	879.94
303.15 K, x2 = 0	1193.56
303.15 K, x2 = 0.054	1172.67
303.15 K, x2 = 0.1213	1147.16
303.15 K, x2 = 0.1983	1118.67
303.15 K, x2 = 0.2489	1100.34
303.15 K, x2 = 0.3138	1077.25
303.15 K, x2 = 0.3854	1052.32
303.15 K, x2 = 0.4428	1032.74
303.15 K, x2 = 0.5098	1010.3
303.15 K, x2 = 0.5721	989.85
303.15 K, x2 = 0.6219	973.76
303.15 K, x2 = 0.6839	954.06
303.15 K, x2 = 0.7429	935.62
303.15 K, x2 = 0.8013	917.67
303.15 K, x2 = 0.8632	898.94
303.15 K, x2 = 0.9328	878.24
313.15 K, x2 = 0	1183.37
313.15 K, x2 = 0.0538	1162.71
313.15 K, x2 = 0.1387	1130.89
313.15 K, x2 = 0.1932	1110.93
313.15 K, x2 = 0.2378	1094.87
313.15 K, x2 = 0.2947	1074.72
313.15 K, x2 = 0.3571	1053.04
313.15 K, x2 = 0.4139	1033.68
313.15 K, x2 = 0.4917	1007.73
313.15 K, x2 = 0.5523	987.93
313.15 K, x2 = 0.6139	968.18
313.15 K, x2 = 0.6731	949.53
313.15 K, x2 = 0.7248	933.5
313.15 K, x2 = 0.7932	912.63
313.15 K, x2 = 0.8536	894.54
313.15 K, x2 = 0.9248	873.58
323.15 K, x2 = 0	1172.38
323.15 K, x2 = 0.0617	1149.22
323.15 K, x2 = 0.1482	1117.58
323.15 K, x2 = 0.2213	1091.54
323.15 K, x2 = 0.2787	1071.53
323.15 K, x2 = 0.3234	1056.2
323.15 K, x2 = 0.3781	1037.74
323.15 K, x2 = 0.4344	1019.07
323.15 K, x2 = 0.4822	1003.47
323.15 K, x2 = 0.5339	986.86
323.15 K, x2 = 0.592	968.49
323.15 K, x2 = 0.6739	943.12
323.15 K, x2 = 0.7429	922.2
323.15 K, x2 = 0.8137	901.15
323.15 K, x2 = 0.8735	883.68
323.15 K, x2 = 0.9572	859.66
333.15 K, x2 = 0	1160.59
333.15 K, x2 = 0.0439	1144.65
333.15 K, x2 = 0.1249	1115.84
333.15 K, x2 = 0.1892	1093.51
333.15 K, x2 = 0.2599	1069.48
333.15 K, x2 = 0.3389	1043.25
333.15 K, x2 = 0.4042	1022.06
333.15 K, x2 = 0.4672	1002.01
333.15 K, x2 = 0.5243	984.15
333.15 K, x2 = 0.5902	963.91
333.15 K, x2 = 0.6645	941.54
333.15 K, x2 = 0.7309	921.93
333.15 K, x2 = 0.8021	901.28
333.15 K, x2 = 0.8623	884.12
333.15 K, x2 = 0.8932	875.4
333.15 K, x2 = 0.9621	856.21
343.15 K, x2 = 0	1148
343.15 K, x2 = 0.0535	1129.57
343.15 K, x2 = 0.1122	1109.7
343.15 K, x2 = 0.1834	1086.08
343.15 K, x2 = 0.2478	1065.16
343.15 K, x2 = 0.3044	1047.11
343.15 K, x2 = 0.3782	1024
343.15 K, x2 = 0.4519	1001.42
343.15 K, x2 = 0.513	983.04
343.15 K, x2 = 0.5801	963.22
343.15 K, x2 = 0.6529	942.11
343.15 K, x2 = 0.7238	921.93
343.15 K, x2 = 0.7932	902.5
343.15 K, x2 = 0.852	886.31
343.15 K, x2 = 0.8932	875.09
343.15 K, x2 = 0.9423	861.85
353.15 K, x2 = 0	1134.61
353.15 K, x2 = 0.0723	1111.4
353.15 K, x2 = 0.1298	1093.3
353.15 K, x2 = 0.1984	1072.07
353.15 K, x2 = 0.2584	1053.83
353.15 K, x2 = 0.3133	1037.4
353.15 K, x2 = 0.3891	1015.12
353.15 K, x2 = 0.4501	997.51
353.15 K, x2 = 0.524	976.53
353.15 K, x2 = 0.5818	960.38
353.15 K, x2 = 0.663	938.08
353.15 K, x2 = 0.7483	915.1
353.15 K, x2 = 0.7964	902.32
353.15 K, x2 = 0.8423	890.26
353.15 K, x2 = 0.8893	878.02
353.15 K, x2 = 0.9529	861.65
